Results: BindingDB's records for patent US20250059220 (Merck Sharp & Dohme, 2025)

Key:
[1] = target: T1, Tyrosine-protein phosphatase non-receptor type 1 (Homo sapiens, UniProt P18031); assay: PTPN1 Biochemical Assay
T1 sequence (P18031 whole entry): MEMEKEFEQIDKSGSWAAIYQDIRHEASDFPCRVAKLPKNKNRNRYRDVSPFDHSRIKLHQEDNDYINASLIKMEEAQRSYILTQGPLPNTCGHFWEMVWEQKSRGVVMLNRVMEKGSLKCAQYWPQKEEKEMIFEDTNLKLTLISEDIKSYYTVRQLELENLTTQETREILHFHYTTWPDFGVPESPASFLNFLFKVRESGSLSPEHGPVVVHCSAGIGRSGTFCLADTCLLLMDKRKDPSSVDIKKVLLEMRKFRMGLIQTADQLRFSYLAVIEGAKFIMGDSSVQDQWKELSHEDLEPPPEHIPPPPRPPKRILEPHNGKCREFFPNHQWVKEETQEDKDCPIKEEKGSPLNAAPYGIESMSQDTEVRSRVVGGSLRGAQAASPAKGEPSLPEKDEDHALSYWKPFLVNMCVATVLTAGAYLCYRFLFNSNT
Experimental: Test compounds were dissolved in DMSO, and 10-point serial 3-fold dilution series in DMSO were prepared in Echo Qualified 384-well Polypropylene Microplates (Labcyte, San Jose, CA) (top concentration 50 µM). […] 5 μl of assay buffer was added into the low control. The plate was incubated for 30 minutes at room temperature. Subsequently, 5 μl of 100 µM DiFMUP (6,8-difluoro-4-methylumbelliferyl phosphate) solution (prepared in assay buffer from 10 mM stock in DMSO) was added to the assay plate and incubated for 1 hour at room temperature. For detection, assay plates were read on SpectraMax Microplate Reader (Molecular Devices), with Excitation wavelength=360 nm and Emission wavelength=460 nm.

[2] = target: T2, Tyrosine-protein phosphatase non-receptor type 2 (Homo sapiens, UniProt P17706); assay: PTPN2 Biochemical Assay
T2 sequence (P17706 whole entry): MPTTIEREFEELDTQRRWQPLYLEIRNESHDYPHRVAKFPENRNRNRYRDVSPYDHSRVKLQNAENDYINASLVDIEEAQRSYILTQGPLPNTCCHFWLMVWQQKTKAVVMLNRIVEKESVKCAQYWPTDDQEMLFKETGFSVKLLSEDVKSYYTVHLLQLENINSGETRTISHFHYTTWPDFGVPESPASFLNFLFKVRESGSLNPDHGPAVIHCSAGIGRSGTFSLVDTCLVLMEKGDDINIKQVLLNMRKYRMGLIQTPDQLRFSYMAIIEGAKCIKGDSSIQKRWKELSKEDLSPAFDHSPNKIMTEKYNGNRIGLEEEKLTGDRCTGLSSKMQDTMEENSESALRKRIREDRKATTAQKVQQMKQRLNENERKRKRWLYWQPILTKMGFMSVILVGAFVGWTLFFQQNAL
Experimental: Test compounds were dissolved in DMSO, and 10-point serial 3-fold dilution series in DMSO were prepared in Echo Qualified 384-well Polypropylene Microplates (Labcyte, San Jose, CA) (top concentration 50 µM). Assay plates (384-well low volume black plates; Corning #3820, Corning, NY) were prepared by dispensing 50 nL of test compound, and DMSO (for high and low controls) by ECHO acoustic dispenser (Labcyte, San Jose CA). This was followed by addition of 5 μL of 0.2 nM human PTPN2 (1-387) solution (prepared in the assay buffer, 50 mM Tris pH 7.4, 150 mM NaCl, 0.01% Tween20, 0.5 mM dithiothreitol) to all wells except the low control. 5 μl of assay buffer was added into the low control, then the plate was incubated for 30 minutes at room temperature. Subsequently, 5 μl of 100 µM DiFMUP (6,8-difluoro-4-methylumbelliferyl phosphate) solution (prepared in assay buffer from 10 mM stock in DMSO) was added to the assay plate and incubated for 1 hour at room temperature. For detection, assay plates were read on SpectraMax Microplate Reader (Molecular Devices), with Excitation wavelength=360 nm and Emission wavelength=460 nm.

Row | IC50 [1] [µM] | IC50 [2] [µM] | Compound
1 | 0.106 | 0.0548 | Cc1ccc(COc2cc(C(N)=O)cc3c(Br)c(C(F)(F)P(=O)(O)O)sc23)cc1C [US20250059220, Compound 358]
2 | 0.0786 | 0.0681 | CS(=O)(=O)CCCOc1cc(C(N)=O)cc2c(C3CC3)c(C(F)(F)P(=O)(O)O)sc12 [US20250059220, Compound 458]
